The IC50 is the concentration that inhibits the measured activity by half.

This passage reports IC50 results from patent US20250136607A1 (REGOR PHARMACEUTICALS, INC., priority 2021, published 2025).

The structures appear in SMILES notation. Some results are limits rather than exact numbers.

In experiment [1] the test system is Citrullinated Histone H3 in dHL-60 cells (differentiated HL-60). The experiment can be described thus: dHL-60 Cit-H3 ELISA assay. Type of experiment: cell-based, human. To be noted: Homo sapiens, HL-60, 3 h, stimulation with 25 μM A23187 for 3 h, read-out: Average IC50 Abs. The method, boiled down:
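HL-60 cells differentiated 72 h with DMF, plated at 1×10^5/well, pretreated 30 min with compound (8-point 3-fold series, 0.2% DMSO), then stimulated 3 h at 37 °C with 25 μM A23187 plus S7 nuclease. Supernatant citrullinated H3 quantified by HRP ELISA at 450 nm; IC50 by four-parameter fit.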
(In general: ELISA stands for enzyme-linked immunosorbent assay.)

The target of experiment [2] is Protein arginine deiminase 4 (PAD4) (Homo sapiens, UniProt Q9UM07). The experiment can be described thus: PAD4 ammonia release assay. Type of experiment: biochemical. To be noted: PAD4 ammonia release assay, BAEE substrate, 60 min at RT; read-out: Average IC50 Abs. The method in brief: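 Ammonia release from BAEE substrate (2× mix 600 μM) was measured after 60 min at RT, following 15 min enzyme–compound preincubation (PAD4 2× 20 nM; pH 8.0 HEPES, 2 mM CaCl2, TCEP; 1.25% DMSO). Detection used OPA/DTT/EDTA for 120 min. % inhibition was taken versus reference-compound and DMSO controls; IC50 by four-parameter logistic fit.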
Chain of Protein arginine deiminase 4 (PAD4) (Q9UM07 whole entry): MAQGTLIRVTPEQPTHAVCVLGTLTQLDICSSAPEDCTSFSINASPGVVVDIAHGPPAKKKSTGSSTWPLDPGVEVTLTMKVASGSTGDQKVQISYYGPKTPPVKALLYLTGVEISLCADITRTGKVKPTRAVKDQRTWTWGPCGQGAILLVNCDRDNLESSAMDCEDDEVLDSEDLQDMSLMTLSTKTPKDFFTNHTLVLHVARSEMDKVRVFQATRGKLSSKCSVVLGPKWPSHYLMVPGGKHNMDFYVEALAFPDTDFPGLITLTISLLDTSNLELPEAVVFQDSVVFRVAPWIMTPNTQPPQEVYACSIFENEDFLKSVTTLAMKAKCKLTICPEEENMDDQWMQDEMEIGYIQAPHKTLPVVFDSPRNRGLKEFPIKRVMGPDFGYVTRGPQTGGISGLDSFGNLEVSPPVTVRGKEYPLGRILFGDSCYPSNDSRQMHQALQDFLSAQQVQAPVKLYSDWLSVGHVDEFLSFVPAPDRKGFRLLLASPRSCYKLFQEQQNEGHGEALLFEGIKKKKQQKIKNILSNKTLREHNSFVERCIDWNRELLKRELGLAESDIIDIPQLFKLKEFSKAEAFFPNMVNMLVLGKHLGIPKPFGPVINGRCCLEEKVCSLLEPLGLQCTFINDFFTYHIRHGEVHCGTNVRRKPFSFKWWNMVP

For `Cn1c(-c2cc3ccc4c(c3n2CC2CC2)NCCO4)nc2cc(C(=O)N3C[C@H]4CC[C@@H]3[C@@H]4N)cc(F)c21` [Example 158, ((1R,4R,7R)-7-amino-2-azabicyclo[2.2.1]heptan-2-yl)(2-(9-(cyclopropylmethyl)-1,2,3,9-tetrahydro-[1,4]oxazino[2,3-g]indol-8-yl)-7-fluoro-1-methyl-1H-benzo[d]imidazol-5-yl)methanone], the IC50 in experiment [1] and in experiment [2] was at most 100 nM each time.

With `Cn1c(-c2cc3ccc4c(c3n2CC2CC2)NCCS4)nc2cc(C(=O)N3C[C@H]4CC[C@@H]3[C@@H]4N)cc(F)c21` [Example 161, ((1R,4R,7R)-7-amino-2-azabicyclo[2.2.1]heptan-2-yl)(2-(9-(cyclopropylmethyl)-1,2,3,9-tetrahydro-[1,4]thiazino[2,3-g]indol-8-yl)-7-fluoro-1-methyl-1H-benzo[d]imidazol-5-yl)methanone], the IC50 in experiment [1] and in experiment [2] was at most 100 nM in each case.

Take `Cn1c(-c2cc3cccc4c3n2C(C2CCC2)CN4)nc2cc(C(=O)N3C[C@H]4CC[C@@H]3[C@@H]4N)cc(F)c21` (stereo partly drawn) [Example 164, ((1R,4R,7R)-7-amino-2-azabicyclo[2.2.1]heptan-2-yl)(2-(3-cyclobutyl-2,3-dihydro-1H-pyrrolo[1,2,3-de]quinoxalin-5-yl)-7-fluoro-1-methyl-1H-benzo[d]imidazol-5-yl)methanone]: the IC50 in experiment [1] is at most 100 nM; in experiment [2] it was 100 to 500 nM.
